This passage reports IC50 results from patent US9340577B2, “HLA binding motifs and peptides and their uses” (priority 1992, dated 2016).

Some targets named below: A*0202 (Homo sapiens, UniProt P04439, D140Y/D185E/D98H/E176V/E277Q/G131W/G231S/I119L/I121R/I166T/I218V/L180W/L300P/L318F/N151K/N90K/P208A/P217A/Q67R/Q86G/Q94H/R138H/R169H/T345S); A*0203 (Homo sapiens, UniProt P04439, A173T/D140Y/D185E/D98H/E277Q/G131W/G231S/I119V/I121R/I166T/I218V/L180W/L300P/L318F/N151K/N90K/P208A/P217A/Q86G/Q94H/R138H/R169H/T345S); A*0206 (Homo sapiens, UniProt P04439, D140Y/D185E/D98H/E176V/E277Q/F33Y/G131W/G231S/I119V/I121R/I166T/I218V/L300P/L318F/N151K/N90K/P208A/P217A/Q86G/Q94H/R138H/R169H/T345S); A*6802 (Homo sapiens, UniProt P04439, A269V/D140Y/D185E/E176V/E277Q/E87N/F33Y/G231S/I121R/I166T/I218V/L180W/L300P/L318F/N151K/P208A/P217A/Q86R/R138H/R169H/S129P/T345S/V36M); HLA-A*0201 (HLA-A2.1) (Homo sapiens, UniProt P04439, D140Y/D185E/D98H/E176V/E277Q/G131W/G231S/I119V/I121R/I166T/I218V/L300P/L318F/N151K/N90K/P208A/P217A/Q86G/Q94H/R138H/R169H/T345S).

Common to all, as to test: biochemical
What all share (assay type): binding

No end group written: not given here.

Regarding ITIGVLVGV [Peptide 9013.0109], the IC50 was found to be 43 nM against A*0202, 16 nM at A*0203, 55 nM at A*0206 and 9 nM at A*6802.

As to AQYSWFVNGV [Peptide 9013.0172], the half-inhibitory concentration (IC50) against A*0202 worked out at 1.2 nM; against A*0203, 2.4 nM; against A*0206 it was 13 nM; against A*6802, 12000 nM.

With VLGEAMSQA [Peptide 1539.08], the IC50 at A*0202 is 21 nM; on A*0203, 22 nM; against A*0206, 1090 nM; against A*6802 it was > 20000 nM.

For the molecule FLQGCIISYA [Peptide 1578.18], the IC50 was 93 nM against HLA-A*0201 (HLA-A2.1), 2.6 nM at A*0202, 9 nM against A*0203 and 241 nM at A*0206.

WQRLLLTASLV [Peptide 9013.0253]: the IC50 against A*0202 was 246 nM; against A*0203, 19 nM; against A*0206 it was 496 nM; against A*6802 it was > 20000 nM.

NVAEGKEVLV [Peptide 9013.0133]: the IC50 on HLA-A*0201 (HLA-A2.1) is > 20000 nM; at A*0202 it was 1140 nM; at A*0203, 19600 nM; against A*0206, > 20000 nM.

As to GMGCTGWFEV [Peptide 1578.19], the IC50 worked out at 37 nM at A*0202, 62 nM at A*0203, 1460 nM against A*0206 and 1320 nM on A*6802.

Regarding SLLTFWNPPTV [Peptide 9013.0256], the IC50 against A*0202 turned out to be 54 nM; on A*0203, 54 nM; on A*0206, 536 nM; at A*6802, 2270 nM.

For the molecule LLIESTPFNV [Peptide 9013.0128], the IC50 was 16 nM at HLA-A*0201 (HLA-A2.1), 4 nM against A*0202, 8.1 nM against A*0203 and 62 nM at A*0206.

For the molecule GTFQQSTQEV [Peptide 9013.0175], the concentration for half-maximal inhibition (IC50) at HLA-A*0201 (HLA-A2.1) is > 20000 nM; against A*0202, 157 nM; on A*0203, 431 nM; at A*0206, 2050 nM.

Turning to YLIGTQQAT [Peptide 9013.0025], the IC50 against A*0202 stood at 2.6 nM; against A*0203, 18 nM; at A*0206, 5520 nM; against A*6802, 8240 nM.

For RLTVKTITVSA [Peptide 9013.0319], the IC50 against A*0202 is 401 nM; on A*0203 it was 91 nM; against A*0206, 1360 nM; against A*6802 it was 270 nM.

NLAEGKEVLL [Peptide 9013.0134]: the IC50 against A*0202 is 9.2 nM; against A*0203, 2030 nM; on A*0206 it was 16900 nM; at A*6802 it was > 20000 nM.

On to TLVTTITVYA [Peptide 9013.0193], for which the IC50 worked out at 781 nM at HLA-A*0201 (HLA-A2.1), 11 nM on A*0202, 57 nM at A*0203 and 1740 nM on A*0206.

Take GVLVGVALV [Peptide 9013.0110]: the IC50 against HLA-A*0201 (HLA-A2.1) came out at 946 nM; against A*0202, 6090 nM; against A*0203, 472 nM; against A*0206 it was 56 nM.

Consider NLTVNNSGSYT [Peptide 9013.0303], for which the IC50 on HLA-A*0201 (HLA-A2.1), on A*0202, against A*0203 and against A*0206 was > 20000 nM in each case.

Turning to AIFGVNPTV [Peptide 1578.25], the IC50 against HLA-A*0201 (HLA-A2.1) was found to be 205 nM; against A*0202 it was 21 nM; at A*0203, 92 nM; against A*0206 it was 96 nM.

For ILQHTQELFI [Peptide 9013.0212], the IC50 against A*0202 was 49 nM; against A*0203 it was 594 nM; on A*0206 it was > 20000 nM; at A*6802, > 20000 nM.

For the molecule ITVNNSGSYV [Peptide 9013.0187], the IC50 against HLA-A*0201 (HLA-A2.1) was > 20000 nM; at A*0202, 334 nM; against A*0203, 255 nM; against A*0206, 1010 nM.

Consider GLLVGVALI [Peptide 9013.0111], for which the IC50 against HLA-A*0201 (HLA-A2.1) came out at 158 nM; against A*0202 it was 89 nM; against A*0203 it was 13 nM; on A*0206 it was 206 nM.

For the molecule RVYVCGIQNSV [Peptide 9013.0336], the IC50 on A*0202 stood at 0.22 nM; against A*0203, 3.6 nM; against A*0206, 305 nM; against A*6802, 6320 nM.

RILQQLLFT [Peptide 1525.13]: the IC50 against A*0202 is 5690 nM; on A*0203, 5250 nM; at A*0206, 491 nM; on A*6802, > 20000 nM.

As to `CC(C)[C@H](NC(=O)[C@@H](NC(=O)[C@H](CC(N)=O)NC(=O)[C@H](CCC(N)=O)NC(=O)[C@H](C)NC(=O)[C@H](CCC(=O)O)NC(=O)[C@@H]1CCCN1C(=O)[C@H](CCC(=O)O)NC(=O)[C@H](CS)NC(=O)[C@@H](NC(=O)[C@@H](N)Cc1ccccc1)[C@@H](C)O)[C@@H](C)O)C(=O)O` [Peptide 9013.0323], the IC50 at HLA-A*0201 (HLA-A2.1) was 336 nM; against A*0202, 29 nM; against A*0203, 86 nM; at A*0206, 920 nM.

With VQWAFDNEV [Peptide 86.0209], the IC50 against A*0202 was 1500 nM; against A*0203 it was 4520 nM; on A*0206, 31 nM; against A*6802 it was > 20000 nM.

With LQGAIISFV [Peptide 1578.28], the IC50 against HLA-A*0201 (HLA-A2.1) came to 42 nM; against A*0202, 6.6 nM; on A*0203, 11 nM; on A*0206, 20 nM.

QLSNGNRTLTV [Peptide 9013.0334]: the IC50 against A*0202 was 20 nM; against A*0203, 363 nM; on A*0206 it was > 20000 nM; on A*6802, > 20000 nM.

Consider TLDATYLWWV [Peptide 9013.0158], for which the IC50 was 61 nM against HLA-A*0201 (HLA-A2.1), 137 nM against A*0202, 468 nM at A*0203 and 155 nM against A*0206.

With ILNTTYLWWV [Peptide 9013.0195], the IC50 on A*0202 came out at 121 nM; at A*0203, 22 nM; against A*0206, 775 nM; on A*6802, 15900 nM.

With YTYYRPGVNV [Peptide 9013.0208], the IC50 at A*0202 was found to be 5.6 nM; at A*0203, 2.9 nM; against A*0206, 75 nM; against A*6802, 7 nM.

As to TVESTPFNV [Peptide 9013.0013], the IC50 at HLA-A*0201 (HLA-A2.1) was 17200 nM; at A*0202, 1910 nM; on A*0203, 6160 nM; against A*0206, 2390 nM.

As for SLQELFIPNI [Peptide 9013.0182], the IC50 against A*0202 came out at 15 nM; against A*0203 it was 35 nM; on A*0206, 66 nM; on A*6802, 7460 nM.

For the molecule FQQSTQELFV [Peptide 9013.0178], the IC50 on A*0202 is 21 nM; at A*0203, 46 nM; on A*0206, 60 nM; at A*6802, > 20000 nM.

Consider WLNNQSLPV [Peptide 9013.0070], for which the IC50 against A*0202 was 1.3 nM; against A*0203, 4.3 nM; against A*0206, 978 nM; on A*6802, 197 nM.

On to ALYSWLIDGNI [Peptide 9013.0315], for which the IC50 stood at 25 nM at HLA-A*0201 (HLA-A2.1), 3.6 nM against A*0202, 7 nM against A*0203 and 92 nM against A*0206.

With TLYAHIQCL [Peptide 1578.26], the IC50 against HLA-A*0201 (HLA-A2.1) is 269 nM; against A*0202 it was 4.9 nM; against A*0203, 9.4 nM; against A*0206, 420 nM.

As to SLMKFLQGSV [Peptide 1578.04], the IC50 at HLA-A*0201 (HLA-A2.1) is 436 nM; at A*0202 it was 31 nM; against A*0203, 4.6 nM; on A*0206 it was 1450 nM.

Consider GLSLPVSPRL [Peptide 9013.0220], for which the IC50 against A*0202 is 223 nM; at A*0203, 3870 nM; at A*0206, > 20000 nM; against A*6802, > 20000 nM.

Take TLGIMIGVLV [Peptide 9013.0251]: the IC50 against A*0202 turned out to be 87 nM; against A*0203, 197 nM; against A*0206, 2240 nM; against A*6802, 1780 nM.

For the molecule FLGALKSFL [Peptide 1578.11], the half-inhibitory concentration (IC50) at HLA-A*0201 (HLA-A2.1) worked out at 719 nM; against A*0202 it was 0.3 nM; against A*0203, 2.1 nM; against A*0206, 1720 nM.

Regarding AQYSWLIDGNV [Peptide 9013.0314], the IC50 amounted to 62 nM against A*0202, 48 nM at A*0203, 70 nM at A*0206 and 15600 nM on A*6802.

Turning to ILYAHIQCL [Peptide 1578.08], the IC50 on A*0202 was 9.4 nM; at A*0203 it was 10 nM; against A*0206, 420 nM; on A*6802, 16400 nM.

On to LTNTGLYNL [Peptide 1481.17], for which the IC50 came to 20 nM on A*0202, 4990 nM on A*0203, 1830 nM on A*0206 and 1580 nM on A*6802.

RQIIGYVIGV [Peptide 9013.0139]: the IC50 at A*0202 came to 7.4 nM; at A*0203 it was 20 nM; at A*0206, 47 nM; against A*6802, 27 nM.

For LTFWNPPTV [Peptide 9013.0006], the IC50 is 3.4 nM against HLA-A*0201 (HLA-A2.1), 17 nM on A*0202, 2.3 nM against A*0203 and 5.2 nM on A*0206.

The term IC50 denotes the concentration that inhibits the measured activity by half. Low readings indicate higher potency, high ones lower potency.
